Measured values taken from US20240067651A1 (Biohaven Therapeutics Ltd., priority 2019, published 2024).

Tests used:
[1] = Plasma Stability; assay type: in vitro ADME, human
Method: Plasma stability estimates the ability of a compound to remain intact in the blood. For prodrugs that are intended to be hydrolyzed by plasma enzymes a certain level of instability in plasma indicates the compound is probably breaking down to the parent drug. A stability range of 25-75% remaining parent compound after 1 hour in plasma indicates the compound is likely breaking down to the parent drug molecule and a patient will be exposed to this parent molecule.
Assessment of plasma stability was carried out by individual incubations of drug candidates in fresh human plasma at a concentration of 1 μM for 1 hour at 37° C. After which, the samples were de-proteinized by addition of 2 volumes of acetonitrile containing 0.1% formic acid and internal standard, vortex mixed for 2 minutes and centrifuged at 4,000 rpm for 10 minutes to pellet precipitated protein. The resulting supernatant containing the drug candidates was diluted 5-fold with water containing 0.1% formic acid and submitted to LCMS/MS analysis. All determinations were done in triplicate. Plasma stability was expressed as percent of control remaining.
See Pelletier et al. ACS Med. Chem. Lett. 2018, 9, 752-756.

[2] = Stability in Simulated Gastric Fluid (SGF); assay type: in vitro ADME; parameters: key: % parent compound remaining relative to 0-minute sample
Method: (§1) Simulated gastric fluid (SGF) and Simulated intestinal fluid (SIF) stability are in vitro metrics indicating the ability of a compound to pass through the gastrointestinal tract […] or completely digested. An undigested or nearly undigested compound will usually survive gut transit long enough to be absorbed into the systemic circulation. Greater than 50% remaining intact compound at 1 hour indicates a relatively stable molecule that will likely be absorbed in the gut.
(§2) For each test compound, samples at a final concentration of 2 μg/mL are prepared in respective blank simulated gastric fluid with pepsin (pH 1.2) and simulated intestinal fluid with pancreatin (pH 6.8). All samples are incubated at 37° C. on a 150-rpm orbital shaker, and an aliquot is removed at predetermined time points (0 to 60 minutes). Samples are precipitated with three volumes of acetonitrile containing propranolol as internal standard, and centrifuged for 10 min at 2,000 g before LC-MS/MS analysis of the supernatant solutions. Percent parent compound remaining is determined relative to 0-minute incubation samples. If a sufficient number of time points are available, the degradation half-life is calculated based on the natural log of % compound remaining vs. time plot.

[3] = Stability in Simulated Intestinal Fluid (SIF); assay type: in vitro ADME; parameters: key: % parent compound remaining relative to 0-minute sample
Method: as §1, §2

[4] = % remaining at 1 h, human plasma, 1 μM, 37° C.
[5] = % remaining at 1 h, SGF with pepsin pH 1.2, 2 μg/mL, 37° C.
[6] = % remaining at 1 h, SIF with pancreatin pH 6.8, 2 μg/mL, 37° C.
[7] = % remaining at 1 h in human plasma, the 15th table
[8] = % remaining at 1 h in simulated gastric fluid, the 15th table
[9] = % remaining at 1 h in simulated intestinal fluid, the 15th table
[10] = bare number, unit or time not given, the 15th table Examples 204-207

Row | human Plasma stability [1, 4] | SGF [2, 5] | SIF [3, 6] | Compound | other results
1 | 97% | 37% | 97% | COc1ccc(CSc2nc(=O)c3[nH]ccc3n2CCOC(C)C)cc1 [Example 74, 2-{[(4-Methoxyphenyl)methyl]sulfanyl}-1-[2-(propan-2-yloxy)ethyl]-1H,4H,5H-pyrrolo[3,2-d]pyrimidin-4-one] | –
2 | 100% | 99% | 91% | Cc1ccc(S(=O)(=O)n2ccc3c2c(=O)[nH]c(=S)n3CCOC(C)C)cc1C [Example 75, 5-(3,4-Dimethylbenzenesulfonyl)-1-[2-(propan-2-yloxy)ethyl]-2-sulfanyl-1H,4H,5H-pyrrolo[3,2-d]pyrimidin-4-one] | –
3 | 98% | 96% | 91% | CC(C)OCCn1c(=S)[nH]c(=O)c2c1ccn2S(C)(=O)=O [Example 76, 5-methanesulfonyl-1-[2-(propan-2-yloxy)ethyl]-2-sulfanylidene-1H,2H,3H,4H,5H-pyrrolo[3,2-d]pyrimidin-4-one] | –
4 | 98% | 99% | 96% | CCS(=O)(=O)n1ccc2c1c(=O)[nH]c(=S)n2CCOC(C)C [Example 77, 5-(ethanesulfonyl)-1-[2-(propan-2-yloxy)ethyl]-2-sulfanylidene-1H,2H,3H,4H,5H-pyrrolo[3,2-d]pyrimidin-4-one] | –
5 | 96% | 100% | 80% | CC(C)OCCn1c(=S)[nH]c(=O)c2c1ccn2S(=O)(=O)c1ccccc1 [Example 78, 5-(benzenesulfonyl)-1-[2-(propan-2-yloxy)ethyl]-2-sulfanylidene-1H,2H,3H,4H,5H-pyrrolo[3,2-d]pyrimidin-4-one] | –
6 | 98% | 92% | 82% | CC(C)OCCn1c(=S)[nH]c(=O)c2c1ccn2S(=O)(=O)c1ccccc1F [Example 79, 5-(2-fluorobenzenesulfonyl)-1-[2-(propan-2-yloxy)ethyl]-2-sulfanylidene-1H,2H,3H,4H,5H-pyrrolo[3,2-d]pyrimidin-4-one] | –
7 | 99% | 90% | 87% | Cc1ccccc1S(=O)(=O)n1ccc2c1c(=O)[nH]c(=S)n2CCOC(C)C [Example 80, 5-(2-methylbenzenesulfonyl)-1-[2-(propan-2-yloxy)ethyl]-2-sulfanylidene-1H,2H,3H,4H,5H-pyrrolo[3,2-d]pyrimidin-4-one] | –
8 | 1% | 99% | 1% | CC(C)OCCn1c(=S)n2c(=O)c3c1ccn3COC(=O)CCCCCCC(=O)OC2 [Example 134, 16-[2-(Propan-2-yloxy)ethyl]-15-sulfanylidene-3,12-dioxa-1,14,16-triazatricyclo[12.5.2.0^{17,20}]henicosa-17(20),18-diene-4,11,21-trione] | –
9 | 67% | 86% | 67% | CC(C)OCCn1c2nc(=O)c3c1ccn3COC(=O)CCCCCCC(=O)OCS2 [Example 135, 22-[2-(Propan-2-yloxy)ethyl]-6,15-dioxa-17-thia-4,19,22-triazatricyclo[16.3.1.0^{4,21}]docosa-1(21),2,18-triene-7,14,20-trione] | –
10 | 2% | 77% | 2% | CC(C)OCCn1c(=S)[nH]c(=O)c2c1ccn2COC(=O)CCCCCCC(=O)OCn1ccc2c1c(=O)[nH]c(=S)n2CCOC(C)C [Example 136, 1,8-Bis({4-oxo-1-[2-(propan-2-yloxy)ethyl]-2-sulfanylidene-1H,2H,3H,4H,5H-pyrrolo[3,2-d]pyrimidin-5-yl}methyl) octanedioate] | –
11 | 1% | 74% | 56% | CC(C)OCCn1c(=S)[nH]c(=O)c2c1ccn2COC(=O)CCCCCCC(=O)OCCl [Example 137, 1-Chloromethyl 8-{4-oxo-1-[2-(propan-2-yloxy)ethyl]-2-sulfanylidene-1H,2H,3H,4H,5H-pyrrolo[3,2-d]pyrimidin-5-yl}methyl octanedioate] | –
12 | 66% remaining | 100% remaining | 98% remaining | CC(C)OCCn1c2nc(=O)c3c1ccn3COC(=O)CCC(=O)N1CCC(CC1)C(=O)OCS2 [Example 138, 25-[2-(propan-2-yloxy)ethyl]-3,15-dioxa-5-thia-7,13,20,25-tetraazatetra-cyclo[18.2.2.1^{6,10}.0^{9,13}]penta-cosa-6,9,11-triene-2,8,16,19-tetrone] | –
13 | 10% remaining | 99% remaining | 79% remaining | CC(C)OCCn1c(=S)n2c(=O)c3c1ccn3COC(=O)CCC(=O)N1CCC(CC1)C(=O)OC2 [Example 140, 19-[2-(propan-2-yloxy)ethyl]-20-sulfanylidene-3,13-dioxa-1,8,15,19-tetraazatetra-cyclo[13.5.2.2^{5,8}.0^{18,22}]tetra-cosa-16,18(22)-diene-4,9,12,21-tetrone] | –
14 | – | – | – | CCCNC(=O)OCSc1nc(=O)c2[nH]ccc2n1CCOC(C)C [Example 182] | human Plasma stability [1, 7]: 94% @ 1 h; SGF [2, 8]: 81% @ 1 h; SIF [3, 9]: 69% @ 1 h
15 | – | – | – | CCCNC(=O)OCSc1nc(=O)c2c(ccn2C(=O)NCCC)n1CCOC(C)C [Example 184] | human Plasma stability [1, 7]: 95% @ 1 h; SGF [2, 8]: 99% @ 1 h; SIF [3, 9]: 86% @ 1 h
16 | – | – | – | CCOC(=O)OCSc1nc(=O)c2[nH]ccc2n1CCOC(C)C [Example 201] | human Plasma stability [1, 7]: 0% remaining; SGF [2, 8]: 100% remaining; SIF [3, 9]: 43% remaining
17 | – | – | – | CCOC(=O)OCSc1nc(=O)c2c(ccn2CSc2nc(=O)c3[nH]ccc3n2CCOC(C)C)n1CCOC(C)C [Example 202] | human Plasma stability [1, 7]: 3% remaining; SGF [2, 8]: 45% remaining; SIF [3, 9]: 52% remaining
18 | – | – | – | CC(C)OCCn1c(SCOC(=O)Oc2ccccc2)nc(=O)c2[nH]ccc21 [Example 205] | human Plasma stability [1, 7]: 2% remaining; SGF [2, 10]: 61; SIF [3, 10]: 10
19 | – | – | – | CCCCCCCOC(=O)OCSc1nc(=O)c2c(ccn2COC(=O)OCCCCCCC)n1CCOC(C)C [Example 220] | human Plasma stability ([1]; % remaining at 1 h in human plasma, the 17th table): 55% remaining; SGF ([2]; % remaining at 1 h in simulated gastric fluid, the 17th table): 77% remaining; SIF ([3]; % remaining at 1 h in simulated intestinal fluid, the 17th table): 5% remaining
20 | – | – | – | CC(C)OCCn1c(=S)[nH]c(=O)c2c1ccn2COC(=O)N(C)c1ccccc1Cl [Example 250] | human Plasma stability ([1]; human plasma, at 1 h): 100% remaining; SGF ([2]; simulated gastric fluid, at 1 h): 99% remaining; SIF ([3]; simulated intestinal fluid, at 1 h): 93% remaining

Row | Compound | human Plasma stability [1, 4] | SGF [2, 5] | SIF [3, 6] | other results
21 | CC(C)OCCn1c(=S)[nH]c(=O)c2c1ccn2C[C@]1(C(=O)O)CCCN1C(=O)OC(C)(C)C.O=C(O)C(F)(F)F [Example 2, trifluoroacetic acid 1-tert-butyl 2-{4-oxo-1-[2-(propan-2-yloxy)ethyl]-2-sulfanylidene-1H,2H,3H,4H,5H-pyrrolo [3,2-d]pyrimidin-5-yl}methyl(2S)-pyrrolidine-1,2-dicarboxylate] | 73% | – | – | –
22 | CC(C)OCCn1c(=S)n(COC(=O)C2CCNCC2)c(=O)c2c1ccn2COC(=O)CCC(=O)O.O=C(O)C(F)(F)F [Example 139, 4-oxo-4-({4-oxo-3-[(piperidine-4-carbonyloxy)methyl]-1-[2-(propan-2-yloxy)ethyl]-2-sulfanylidene-1H,2H,3H,4H,5H-pyrrolo[3,2-d]pyrimidin-5-yl}methoxy)butanoic acid; trifluoroacetic acid] | 8% remaining | 99% remaining | 98% remaining | –
